Source: patent US20240197728A1, “METHODS AND PHARMACEUTICAL COMPOSITIONS FOR TREATING REFRACTORY EPILEPSY” (INSERM (INSTITUT NATIONAL DE LA SANTÉ ET DE LA RECHERCHE …, priority 2021, published 2024)

System: lithium-pilocarpine model of mTLE
Assay: Lithium-pilocarpine mouse model of mTLE, telemetric ECoG seizure detection
Type: in vivo, C57Bl6/J mice
Details: PCPZ 2 mg/kg i.p. twice daily
Protocol: Our procedures were all approved by local ethics committee (Charles Darwin, Apafis 202008050923999 v4). 8 weeks-old male C57B16/J mice were used in a pilocarpine-based model of temporal lobe epilepsy as described. In brief, animals received an intraperitoneal (ip) injection of LiCl (423 mg/kg) and scopolamine (1 mg/kg), respectively 18-24 hours and 1 hour prior to pilocarpine. Pilocarpine (75 mg/kg) was then injected ip and mice were continuously monitored for the onset of status epilepticus (SE). In mice in which the first pilocarpine injection had not triggered SE after one hour, a second injection at 20 mg/kg was performed. SE was interrupted one hour after onset by ip injection of diazepam and ketamine (both at 10 mg/kg). […] They were monitored daily for weight, behavior and were provided with enriched liquid food (Fortimel Energy®) for the first 5-7 days post SE. […]
ECoG probe implantation was performed 28 days post SE in all mice except for 1 mouse that was implanted prior to SE induction in order to monitor chronic seizure onset (FIG. 6D). […] One week after implantation, ECoG signal (0.3-160 Hz) were recorded continuously using a telemetric Octal Data Receiver (OpenSourceInstruments), amplified 100× and acquired at 512 Hz. Recordings were analyzed offline using Event Classification Processor ECP20 under NeuroArchiver 132. […]

CN1CCN(CCCN2c3ccccc3Sc3ccc(Cl)cc32)CC1 [PCPZ, prochlorperazine]
seizure frequency (chronic phase days 40-45 post-SE, saline group 2.86±0.83): 0.95±0.42 per day | reduction in seizure frequency compared to saline control group (days 40-45 post-SE): 3 fold
